Among the data in PMC12428554, “Anti-HIV and Antimicrobial Activity of 7-Hydrazino-8-hydroxyquinoline-Based Aromatic Hydrazones” (International Journal of Molecular Sciences, 2025) are IC50 and MIC values, retold here.

Molecules are shown by their SMILES. “And” between values parts separate entries of the source, which are not always exact repeats. Equal values may be shown once. A value given as a limit tells only on which side of the number the result lay.

The subject of experiment [1] is HIV Rev – HIV RNA complex. Set-up: method as in PMID 25503645, PMID 17967062. As to conditions: Figure 1; cited from earlier work.
In experiment [2] the test system is C. albicans ATCC 10231. The experiment is described as follows: MIC by twofold serial dilution, C. albicans. The experiment is classed as cell-based. As to conditions: Candida albicans, ATCC10231; 24 h, 35 °C; read-out: MIC (Mean ± SE) C. albicans ATCC 10231. How it is done:
(§1) Candida albicans ATCC 10231, Pseudomonas aeruginosa ATCC 27853, and Staphylococcus aureus ATCC 29213 strains were obtained from the American Type Culture Collection (ATCC; Rockville, MD, USA). The subculture and inoculum preparation were performed according to CLSI M27-A3 for C. albicans on yeast extract peptone dextrose (YPD) agar (HiMedia, Mumbai, Maharashtra, India) and RPMI-1640 medium (PanEco, Moscow, Russia) with MOPS (3-(N-morpholino) propanesulfonic acid, >99.5%; PanEco, Moscow, Russia), and M7-A11 for P. aeruginosa and S. aureus on Mueller-Hinton agar (MHA; HiMedia, Mumbai, Maharashtra, India) and Mueller-Hinton broth (MHB; HiMedia, Mumbai, Maharashtra, India). The stock cell concentrations of fungus and bacteria were 1 × 10^6 and 1 × 10^8 cells/mL, respectively. A working suspension of C. albicans (5.0 × 10^2 cells/mL) was prepared by two-step dilution of the broth concentration with the RPMI-1640 medium. Assay suspensions of P. aeruginosa and S. aureus (1.0 × 10^6 cells/mL) were prepared by diluting the concentration with Mueller-Hinton broth (HiMedia, Mumbai, Maharashtra, India). Amphotericin B (Sigma-Aldrich, Burlington, MA, USA) and gentamicin (Sigma-Aldrich, Burlington, MA, USA) were used as secondary pharmaceutical standards.
(§2) The minimum inhibitory concentration (MIC) was determined by the twofold serial dilution method, according to CLSI M27-A3 [33] and M07-A11 [34], in three independent experiments with four replicates each. Amphotericin B was used as a positive control for fungus; gentamicin was used as a positive control for bacteria. Stock solutions except gentamicin were prepared in DMSO at a concentration of 6400 μg/mL. Gentanicin was solubilized in sterile water at a concentration of 1280 μg/mL. Stock solutions of the tested substances were diluted to the final concentrations in the assay medium and 100 μL of each sample was added to the wells of 96-well plates, and then 100 μL of inoculum was added. Rows 11 and 12 were left for the negative control (medium with inoculum without the drug) and sterility control. The plates were incubated for 24 h at 35 °C in the case of C. albicans and at 37 °C in the case of P. aeruginosa and S. aureus. The tested concentration for gentamicin ranged from 0.0625 to 32 μg/mL; for other compounds, it ranged from 0.125 to 64 μg/mL. The MIC value was determined using spectrophotometer. The MIC was taken to be the lowest drug concentration that caused complete inhibition of microorganism growth compared to the control. The final MIC values were reported as the means with standard error (SE). Standard errors for µg/mL values less than 0.01 were excluded; standard errors for µM values less than 0.1 were excluded (Table 3).

For experiment [3], the system named is HIV-1 (subtype B) in MT-4 cells. Kind of experiment: Antigen p24 assay in HIV-infected MT-4 cells. The experiment is classed as cell-based. As to conditions: Human immunodeficiency virus 1, MT4; HIV-1 899A strain (subtype B), third day after infection. How it is done: The human MT-4 lymphoblastoid cells were cultured in RPMI 1640 medium supplemented with 10% fetal bovine serum (FBS) (HyClone, Logan, UT, USA), 2 mM L-glutamine, 50 U/mL penicillin, and 50 μg/mL streptomycin in a humidified atmosphere of 5% CO2 at 37 °C. The cells were re-seeded at a density of 3.0 × 10^5 cells/mL every three days. The HIV-1_899A strain (subtype B) was used from the collection of human immunodeficiency virus strains of the D.I. Ivanovsky Institute of Virology, N. F. Gamaleya National Research Center of Epidemiology and Microbiology, Ministry of Health, Moscow, Russia. The commercial drug Efavirenz (EFV), a non-nucleoside inhibitor of HIV reverse transcriptase, was used as a positive control. HIV-1 was added to the cells at 0.1 CCID50 (50% cell culture infectious dose). The cells, both infected and non-infected, were then incubated at 37 °C in a humidified atmosphere containing 5% CO2 for a 40 min period, after which the cells were washed twice in serum-free RPMI 1640 and plated into the wells of a 96-well plate. The tested compounds were then added to the cells at concentrations from 0.5 μM to 100 μM. The final ethanol concentration was 1% v/v. On the third day after infection, the culture fluid was collected for determining the amount of p24 antigen by enzyme immunoassay analysis using a commercial test system kit (Genscreen ULTRA HIV Ag-Ab, Bio-Rad, Hercules, CA, USA). Cell viability was measured by MTT assay.

Experiment [4] has as its system S. aureus ATCC 29213. The experiment is described as follows: MIC by twofold serial dilution, S. aureus. The experiment is classed as cell-based. As to conditions: Staphylococcus aureus, ATCC29213, 24 h, 37 °C, read-out: MIC (Mean ± SE) S. aureus ATCC 29213. How it is done:
as §1, §2

The test system of experiment [5] is P. aeruginosa ATCC 27853. Kind of experiment: MIC by twofold serial dilution, P. aeruginosa. The experiment is classed as cell-based. As to conditions: Pseudomonas aeruginosa, ATCC27853; 24 h, 37 °C; read-out: MIC (Mean ± SE) P. aeruginosa ATCC 27853. The protocol:
as §1, §2

Experiment [6] addresses T1, recombinant HIV-1 Integrase (strand transfer) (Human immunodeficiency virus type 1 group M subtype B, UniProt P04585).
T1 construct: The recombinant HIV-1 Integrase (In) was isolated from the Rosetta Escherichia coli producer strain; made in house; host or cells: Escherichia coli Rosetta
More on the design: method as in PMID 12234864. As to conditions: positive control, known value; cited from earlier work.

Experiment [7] has as its system Ku70. More on the design: method as in PMID 27130816. The settings on record: read-out: IC50, Ku70 interaction with DNA; cited from earlier work.

With `FC(F)(F)Oc1ccc(Nc2ccc3cccc(Cl)c3n2)cc1` [ABX464], in experiment [1], the IC50 was 100 to 500 nM.
`C[C@@H]1[C@H](O)[C@@H](C)/C=C/C=C/C=C/C=C/C=C/C=C/C=C/[C@H](O[C@@H]2O[C@H](C)[C@@H](O)[C@H](N)[C@@H]2O)C[C@@H]2O[C@](O)(C[C@@H](O)C[C@@H](O)[C@H](O)CC[C@@H](O)C[C@@H](O)CC(=O)O[C@H]1C)C[C@H](O)[C@H]2C(=O)O` [Amphotericin B, reference compound]: in experiment [2], the MIC was 0.4 µg/mL and 0.4 µM.
Consider `O=C1Nc2ccc(Cl)cc2[C@@](C#CC2CC2)(C(F)(F)F)O1` [EFV, Efavirenz, reference compound], for which the IC50 in experiment [3] is less than 50 nM.
As for `CNC(C)C1CCC(N)C(OC2C(N)CC(N)C(OC3OCC(C)(O)C(NC)C3O)C2O)O1` (stereo not shown) [Gentamicin, reference compound], the MIC in experiment [4] was 0.6 µg/mL and 1.3 µM; in experiment [5], 2 µg/mL and 4.2 µM.
As to `O=C(O)C(=O)CC(=O)c1cc(OCc2ccccc2)cc(OCc2ccccc2)c1` [L-708,906], the IC50 in experiment [6] is 500 ± 100 nM.
With `COc1ccc(CCNc2ncc3c(=O)n(-c4cccc(F)c4)c(=O)[nH]c3n2)cc1OC` [STL127705], the IC50 in experiment [7] was 3.5 µM.

A word on the IC50: it is the concentration needed to halve the response being measured. A word on the MIC: it is the lowest concentration that inhibits growth of the organism.
